{"source": "patent US12275734B1", "about": "“Pleuromutilin onium salt derivative containing a 3H-imidazo[4,5-c]pyridine side chain, and a preparation method and application thereof” (SHAANXI UNIVERSITY OF SCIENCE AND TECHNOLOGY, priority 2024, dated 2025)", "assay_type_in_all_cases": "cell-based", "key": {"A549 Cells": {"test_system": "A549 Cells", "assay": "Cytotoxicity, Cell Counting Kit-8", "procedure": "(§1) Cell Counting Kit-8 was used to evaluate the cytotoxicity of the compounds.\n(§2) (4) Cell culture: HepG2, HEK293 and A549 cells were evenly dispersed in culture medium, seeded into 96-well plates, and cultured under appropriate environmental conditions to keep the cells completely attached to the well walls.\n(§3) (5) Compound treatment: Add different concentrations of compounds I-8 and I-9 to each well (the concentrations are 0.78, 1.56, 3.13, 6.25, 12.5, 25, 50 and 100 μM, respectively, and perform 6 parallel experiments). Set up a blank control group and a normal control group. After incubation for 24 hours, observe the cell condition, which observed under a microscope.\n(§4) (6) CCK-8 solution treatment: Add CCK-8 solution to each well and incubate for 4 hours to allow it to react with the cells.\n(§5) (7) Absorbance determination: Use a full-wavelength scanning multifunctional reader, place the 96-well plate in the instrument, oscillate to mix to make the color evenly distributed, and measure the absorbance value at 490 nm.\n(§6) (8) Data analysis: Based on the measured absorbance values, the cell survival rate at different concentrations can be calculated. The median cytotoxic concentration was used to evaluate the cytotoxicity of the compound to A549, HEK293 and HepG2 cells."}, "HepG2 Cells": {"test_system": "HepG2 Cells", "assay": "Cytotoxicity, Cell Counting Kit-8", "procedure": "as §1, §2, §3, §4, §5, §6"}, "HEK293 Cells": {"test_system": "HEK293 Cells", "assay": "Cytotoxicity, Cell Counting Kit-8", "procedure": "as §1, §2, §3, §4, §5, §6"}, "[1]": {"test_system": "methicillin-resistant Staphylococcus aureus-206", "assay": "MIC, clinical isolates", "procedure": "(§7) The minimum inhibitory concentration of 3H-imidazo[4,5-C]pyridine pleuromutilin onium salt derivatives against the tested pathogenic microorganisms were determined by broth microdilution method, with valnemulin and retapamulin as positive controls.\n(§8) The experimental strains included resistant Gram-positive bacteria: Methicillin-resistant S. aureus ATCC 33591; Methicillin-resistant S. aureus ATCC 43300; S. aureus ATCC 29213; Methicillin-resistant S. epidermidis ATCC 51625. Resistant Gram-negative bacteria: A. baumannii ATCC 19606; S. enterica ATCC14028; E. coli ATCC 25922; E. coli CMCC 44103. 9 clinically isolated resistant strains: MRSA-171; MRSA-575; MRSA-206; MRSA-222; MRSA-596; VRE-80; MDR-PA-126; MDR-KP-893; CR-AB-882.\n(§9) (1) Preparation of MHB medium: Weigh 18.0 g of MHB medium pre-made powder, add it to 1 L of distilled water, heat and boil until completely dissolved, divide it into conical bottles, sterilize it by high pressure at 121° C. for 15 minutes, and set aside.\n(§10) (2) Cultivate the experimental strain to the logarithmic growth phase: Under sterile conditions, inoculate the experimental strain into fresh MHB medium and culture it in a 37° C. constant temperature and humidity incubator for 16-24 hours. Adjust the bacterial solution concentration to 1.5×10^8 CFU/mL and then dilute it 200 times for later use.\n(§11) (3) Preparation of storage solution: Weigh the sample to be tested, dissolve it in 1% DMSO solution, and prepare a storage solution with a concentration of 2560 μg/mL; weigh the positive control, dissolve it in sterile distilled water, and prepare a storage solution with a concentration of 2560 μg/mL.\n(§12) (4) Preparation of bacterial suspension: Under sterile conditions, the experimental strain cultured to the logarithmic growth phase was calibrated to a 0.5 McFarland unit turbidity standard using MHB medium and then diluted at a ratio of 1:200 to prepare a bacterial suspension with a concentration of 5×10^5 CFU/mL for later use.\n(§13) (5) Determination of MIC by two-fold microdilution method: Take a sterile 96-well plate, add 10 μL of the test compound at a concentration of 2560 μg/mL, and perform serial dilutions by the two-fold dilution method. At the same time, set up a negative control group without drug. Then add 190 μL of diluted bacterial solution to each well, so that the final bacterial solution concentration in each well is 5×10^5 CFU/mL, and incubate in a 37° C. constant temperature and humidity chamber for 24 hours."}, "[2]": {"test_system": "methicillin-resistant Staphylococcus aureus-171", "assay": "MIC, clinical isolates", "procedure": "as §7, §8, §9, §10, §11, §12, §13"}, "[3]": {"test_system": "methicillin-resistant Staphylococcus aureus-222", "assay": "MIC, clinical isolates", "details": "MRSA / MRSE", "procedure": "as §7, §8, §9, §10, §11, §12, §13"}, "[4]": {"test_system": "multidrug-resistant Pseudomonas aeruginosa-126", "assay": "MIC, clinical isolates", "procedure": "as §7, §8, §9, §10, §11, §12, §13"}, "[5]": {"test_system": "methicillin-resistant Staphylococcus aureus-596", "assay": "MIC, clinical isolates", "procedure": "as §7, §8, §9, §10, §11, §12, §13"}, "[6]": {"test_system": "methicillin-resistant Staphylococcus aureus-575", "assay": "MIC, clinical isolates", "procedure": "as §7, §8, §9, §10, §11, §12, §13"}, "[7]": {"test_system": "multidrug-resistant Klebsiella pneumoniae-893", "assay": "MIC, clinical isolates", "details": "clinical isolate MDR-KP-893", "procedure": "as §7, §8, §9, §10, §11, §12, §13"}, "[8]": {"test_system": "carbapenem-resistant Acinetobacter baumannii-882", "assay": "MIC, clinical isolates", "procedure": "as §7, §8, §9, §10, §11, §12, §13"}, "[9]": {"test_system": "vancomycin-resistant Enterococcus-80", "assay": "MIC, clinical isolates", "procedure": "as §7, §8, §9, §10, §11, §12, §13"}}, "note": "Read-outs that look alike come from different tables or passages of the source."}
{"smiles": "C=C[C@]1(C)C[C@@H](OC(=O)CSc2nc3cc[n+](Cc4ccc(C)cc4)cc3[nH]2)[C@]2(C)[C@H](C)CC[C@]3(CCC(=O)[C@H]32)[C@@H](C)[C@@H]1O", "note": "[Compound i, 5-(4-methylbenzyl)-2-((2-(((3aR,4R,5R,7S,8S,9R,9aS,12R)-8-hydroxy-4,7,9,12-tetramethyl-3-oxo-7-vinyldecahydro-4,9a-propancyclopenta[8]cyclo-5-yl)oxy)-2-oxoethyl)thio)-3H-imidazo[4,5-C]pyridine-5-ium]", "values": [{"measurement": "CC50", "setting": "A549 Cells; CCK-8, 24 hours incubation, read-out: CC50 A549 Cells", "result": "> 100", "unit": "µM"}, {"measurement": "CC50", "setting": "HepG2 Cells; CCK-8, 24 hours incubation, read-out: CC50 HepG2 Cells", "result": "> 100", "unit": "µM"}, {"measurement": "CC50", "setting": "HEK293 Cells; CCK-8, 24 hours incubation, read-out: CC50 HEK293 Cells", "result": 96.4, "unit": "µM"}, {"measurement": "MIC", "setting": "[1]; clinical isolate MRSA-206, read-out: Antibacterial activity (MIC) MRSA^d", "result": 1, "unit": "µg/mL"}, {"measurement": "MIC", "setting": "[2]; clinical isolate MRSA-171, read-out: Antibacterial activity (MIC) MRSA^b", "result": 4, "unit": "µg/mL"}, {"measurement": "MIC", "setting": "[3]; clinical isolate MRSA-222, read-out: Antibacterial activity (MIC) MRSE^e", "result": 4, "unit": "µg/mL"}, {"measurement": "MIC", "setting": "[4]; clinical isolate MDR-PA-126, read-out: Antibacterial activity (MIC) MDR-PA^h", "result": 4, "unit": "µg/mL"}, {"measurement": "MIC", "setting": "[5]; clinical isolate MRSA-596, read-out: Antibacterial activity (MIC) MRSA^f", "result": 2, "unit": "µg/mL"}, {"measurement": "MIC", "setting": "[6]; clinical isolate MRSA-575, read-out: Antibacterial activity (MIC) MRSA^c", "result": 1, "unit": "µg/mL"}, {"measurement": "Antibacterial activity (MIC) MDR-KP^i", "setting": "[7]", "result": 2, "unit": "µg/mL"}, {"measurement": "MIC", "setting": "[8]; clinical isolate CR-AB-882, read-out: Antibacterial activity (MIC) CR-AB^j", "result": 4, "unit": "µg/mL"}, {"measurement": "MIC", "setting": "[9]; clinical isolate VRE-80, read-out: Antibacterial activity (MIC) VRE^g", "result": 4, "unit": "µg/mL"}]}
{"smiles": "C=C[C@]1(C)C[C@@H](OC(=O)CS[C@@H]2C[C@H]3CC[C@@H](C2)N3C)[C@]2(C)[C@H](C)CC[C@]3(CCC(=O)[C@H]32)[C@@H](C)[C@@H]1O", "note": "[Retapamulin, reference compound]", "values": [{"measurement": "CC50", "setting": "A549 Cells; human, 24 h", "result": 71.5, "unit": "µM"}, {"measurement": "CC50", "setting": "HepG2 Cells; human, 24 h", "result": 61.1, "unit": "µM"}, {"measurement": "CC50", "setting": "HEK293 Cells; human, 24 h", "result": 57.5, "unit": "µM"}, {"measurement": "MIC", "setting": "[1]; MRSA, read-out: Antibacterial activity (MIC) MRSA^d", "result": 64, "unit": "µg/mL"}, {"measurement": "MIC", "setting": "[2]; MRSA, read-out: Antibacterial activity (MIC) MRSA^b", "result": 128, "unit": "µg/mL"}, {"measurement": "MIC", "setting": "[3]; read-out: Antibacterial activity (MIC) MRSE^e", "result": 128, "unit": "µg/mL"}, {"measurement": "MIC", "setting": "[4]; read-out: Antibacterial activity (MIC) MDR-PA^h", "result": 64, "unit": "µg/mL"}, {"measurement": "MIC", "setting": "[5]; MRSA, read-out: Antibacterial activity (MIC) MRSA^f", "result": 32, "unit": "µg/mL"}, {"measurement": "MIC", "setting": "[6]; MRSA, read-out: Antibacterial activity (MIC) MRSA^c", "result": 32, "unit": "µg/mL"}, {"measurement": "Antibacterial activity (MIC) MDR-KP^i", "setting": "[7]", "result": 128, "unit": "µg/mL"}, {"measurement": "MIC", "setting": "[8]; read-out: Antibacterial activity (MIC) CR-AB^j", "result": 64, "unit": "µg/mL"}, {"measurement": "MIC", "setting": "[9]; VRE, read-out: Antibacterial activity (MIC) VRE^g", "result": "> 128", "unit": "µg/mL"}]}
